Source: paper PMC6067878, “Lipoate-binding proteins and specific lipoate-protein ligases in microbial sulfur oxidation reveal an atpyical role for an old cofactor” (eLife, 2018)

Assays:
[1] = molecular target: T1, TkLbpA1 (lipoate-binding protein LbpA1, TK90_0638) (Thioalkalivibrio sp. K90mix, UniProt D3SF86); experiment: MALDI mass spectrometry of enzymatic lipoylation; settings: covalent; lipoyl group attached to apo-protein by TkLplA with ATP, 37 °C
T1 construct: Strep- or His-tagged (pET22b), made in E. coli as apoprotein
T1 sequence (D3SF86 1-148): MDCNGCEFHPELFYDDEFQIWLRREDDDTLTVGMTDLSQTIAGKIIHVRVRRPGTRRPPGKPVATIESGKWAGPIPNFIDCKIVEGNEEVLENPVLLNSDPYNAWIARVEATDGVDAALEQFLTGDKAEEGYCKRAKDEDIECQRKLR

[2] = molecular target: T2, TkLplA (LplA-like lipoate-protein ligase, TK90_0642) (Thioalkalivibrio sp. K90mix, UniProt D3SF90); experiment: TLC of lipoyl-AMP from [alpha-32P]ATP; MALDI of lipoylated acceptor; type: biochemical; settings: Mg2+, 50 mM sodium phosphate pH 7.8, 37 °C (adenylation), acceptors TkLbpA1 and TkLbpA2
T2 construct: Strep- or His-tagged (pET22b), made in E. coli; single-domain ligase lacking the small domain
T2 sequence (D3SF90 1-363): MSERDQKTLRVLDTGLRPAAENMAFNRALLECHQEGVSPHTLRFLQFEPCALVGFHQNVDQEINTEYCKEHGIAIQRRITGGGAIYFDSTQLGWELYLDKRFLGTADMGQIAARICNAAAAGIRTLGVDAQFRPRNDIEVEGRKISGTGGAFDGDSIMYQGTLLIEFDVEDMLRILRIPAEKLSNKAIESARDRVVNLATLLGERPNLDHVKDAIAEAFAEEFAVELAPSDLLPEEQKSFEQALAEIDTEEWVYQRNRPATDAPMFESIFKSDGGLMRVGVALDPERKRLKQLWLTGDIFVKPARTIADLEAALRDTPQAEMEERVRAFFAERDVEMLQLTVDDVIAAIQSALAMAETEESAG

[3] = molecular target: T3, TkLbpA2 (lipoate-binding protein LbpA2, TK90_0640) (Thioalkalivibrio sp. K90mix, UniProt D3SF88); experiment: MALDI mass spectrometry of enzymatic lipoylation; settings: covalent; lipoyl group attached to apo-protein by TkLplA with ATP, 37 °C
T3 construct: gene gcvH; Strep- or His-tagged (pET22b), made in E. coli as apoprotein
T3 sequence (D3SF88 1-145): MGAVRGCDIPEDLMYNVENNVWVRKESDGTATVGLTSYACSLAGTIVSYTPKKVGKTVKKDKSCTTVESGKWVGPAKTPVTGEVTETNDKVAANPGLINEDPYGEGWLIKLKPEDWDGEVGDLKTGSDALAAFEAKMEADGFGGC

O=C(O)CCCC[C@@H]1CCSS1 (racemic) [lipoic acid, 1,2-dithiolane-3-pentanoic acid]
MALDI mass spectrometry of enzymatic lipoylation [1]: The overall lipoate ligase activity of LplA-like proteins was confirmed by mass spectrometry | TLC of lipoyl-AMP from [alpha-32P]ATP; MALDI of lipoylated acceptor [2]: synthesis of both octanoyl-adenylate and lipoyl-adenylate intermediates were readily demonstrated | MALDI mass spectrometry of enzymatic lipoylation [3]: The overall lipoate ligase activity of LplA-like proteins was confirmed by mass spectrometry
